Data on one compound can be found in patent US20190382850A1, “METHOD FOR IDENTIFYING MITOCHONDRIAL DNA IN EXTRACELLULAR VESICLES AND TREATMENT OF MTDNA-RELATED DISORDERS AND CANCER” (Memorial Sloan-Kettering Cancer Center, priority 2017, published 2019).

The test system of this data set is ND1 DNA in EVs from patients. Put plainly: mtDNA ND1 level (qPCR) in circulating EVs of patients before and after therapy. In kind it is in vivo, human. The note with it: FIG. 7d. The method, then: (Panel a), Dot plot of nuclear DNA copy number quantification as determined by qPCR for GAPDH gene in circulating EVs isolated from fresh collected plasma (5-8 ml) of 8 healthy controls and 20 luminal breast cancer patients at different stage of their disease (Table 5). Each point corresponds to a patient sample. (Panel b), Schematic and gel electrophoresis of whole mtDNA genome amplified in several patient derived circulating EV-DNA resulting from 46 overlapping PCR amplicons to cover all the mtDNA genome. (Panel c), mtDNA ND1 level change (Ct qPCR value from 2 ng of total EV-DNA) determined in the same patient (two different examples are reported) following time and therapy response (PR, partial response; Stable Disease; POD, progression of disease); (Panel d) mtDNA ND1 level change (Ct qPCR value from 2 ng of total EV-DNA) determined in two different patients (#1, #2) before and after a certain therapy. Data are reported as error bars, mean±s.d. of n=3 independent experiments. […]
DNA and cDNAs were amplified by quantitative PCR (qPCR) using the Applied Biosystem Viia™ 7 Real-Time PCR System in the Power SYBR® Green PCR Master Mix Buffer. […] For analysis, ΔΔct method was applied and fold change was calculated (2^−ΔΔct). […]

Take `COc1cccc2c1C(=O)c1c(O)c3c(c(O)c1C2=O)C[C@@](O)(C(=O)CO)C[C@@H]3O[C@H]1C[C@H](N)[C@H](O)[C@H](C)O1` [Doxorubicin]: the “ND1 DNA level in EVs from patients receiving the therapy” value is “higher”.
